Experimental data from ChEMBL document CHEMBL4732205, “Structure-based optimization identified novel furyl-containing 2,4-diarylaminopyrimidine analogues as ALK/ROS1 dual inhibitors with anti-mutation effects” (Eur J Med Chem, 2021).
Activity calls are given as the source filed them. The rule behind the calls is not given here.

Legend:
KARPAS-299 = test: Antiproliferative activity against human KARPAS-299 cells assessed as reduction in cell growth incubated for 72 hrs by MTT assay; format: functional, cell-based; details: KARPAS-299, 72 h
MCF7 = test: Antiproliferative activity against human MCF7 cells assessed as reduction in cell growth incubated for 72 hrs by MTT assay; format: functional, cell-based; details: MCF7, 72 h
NCI-H2228 [1] = test: Antiproliferative activity against human NCI-H2228 cells assessed as reduction in cell growth incubated for 72 hrs by MTT assay; format: functional, cell-based; details: NCI-H2228, 72 h
A549 = test: Antiproliferative activity against human A549 cells assessed as reduction in cell growth incubated for 72 hrs by MTT assay; format: functional, cell-based; details: A549, 72 h
[2] = molecular target: T1, ALK tyrosine kinase receptor (Homo sapiens, UniProt Q9UM73); test: Inhibition of recombinant human N-terminal GST-tagged ALK (1058 to 1620 residues) expressed in baculovirus expression system using Srctide as substrate incubated for 1 hr by mobility shift assay
[3] = molecular target: ALK tyrosine kinase receptor (Homo sapiens, UniProt Q9UM73, L1196M); test: Inhibition of recombinant human N-terminal GST-tagged ALK L1196M mutant (1058 to 1620 residues) expressed in baculovirus expression system using Srctide as substrate incubated for 1 hr by mobility shift assay
[4] = molecular target: ALK tyrosine kinase receptor (Homo sapiens, UniProt Q9UM73, G1202R); test: Inhibition of recombinant human N-terminal GST-tagged ALK G1202R mutant (1058 to 1620 residues) expressed in baculovirus expression system using Srctide as substrate incubated for 1 hr by mobility shift assay
[5] = molecular target: Proto-oncogene tyrosine-protein kinase ROS (Homo sapiens, UniProt P08922); test: Inhibition of recombinant human N-terminal GST-tagged ROS1 (1883 to 2347 residues) expressed in baculovirus expression system using IRS1 as substrate incubated for 1 hr by mobility shift assay
[6] = molecular target: Epidermal growth factor receptor (Homo sapiens, UniProt P00533); test: Inhibition of recombinant human N-terminal GST-tagged EGFR (669 to 1210 residues) expressed in baculovirus expression system using Srctide as substrate incubated for 1 hr by mobility shift assay
[7] = test system: ALK tyrosine kinase receptor (Homo sapiens), Q9UM73 [L1196M]; test: Potency index, ratio of IC50 of ceritinib to IC50 of compound for inhibition of recombinant human N-terminal GST-tagged ALK L1196M mutant (1058 to 1620 residues) expressed in baculovirus expression system using Srctide as substrate incubated for 1 hr by mobility shift assay
[8] = test system: ALK tyrosine kinase receptor (Homo sapiens), Q9UM73 [G1202R]; test: Potency index, ratio of IC50 of ceritinib to IC50 of compound for inhibition of recombinant human N-terminal GST-tagged ALK G1202R mutant (1058 to 1620 residues) expressed in baculovirus expression system using Srctide as substrate incubated for 1 hr by mobility shift assay
[9] = molecular target: T1, ALK tyrosine kinase receptor; test: Inhibition of ALK in human NCI-H2228 cells assessed as reduction in ALK phosphorylation incubated for 24 hrs by Western blot analysis; format: cell-based
[10] = molecular target: T1, ALK tyrosine kinase receptor; test: Inhibition of ALK in human NCI-H2228 cells assessed as reduction in ALK phosphorylation at 100 nM incubated for 24 hrs by Western blot analysis relative to control; format: cell-based
[11] = molecular target: T1, ALK tyrosine kinase receptor; test: Inhibition of ALK in human NCI-H2228 cells assessed as reduction in Akt phosphorylation at 25 to 100 nM incubated for 24 hrs by Western blot analysis; format: cell-based; details: dose 25-100 nM
[12] = molecular target: T1, ALK tyrosine kinase receptor; test: Inhibition of ALK in human NCI-H2228 cells assessed as reduction in Erk phosphorylation at 25 to 100 nM incubated for 24 hrs by Western blot analysis; format: cell-based; details: dose 25-100 nM
[13] = molecular target: T1, ALK tyrosine kinase receptor; test: Inhibition of ALK in human NCI-H2228 cells assessed as reduction in Akt expression at 25 to 100 nM incubated for 24 hrs by Western blot analysis; format: cell-based; details: dose 25-100 nM
[14] = molecular target: T1, ALK tyrosine kinase receptor; test: Inhibition of ALK in human NCI-H2228 cells assessed as reduction in ERK expression at 25 to 100 nM incubated for 24 hrs by Western blot analysis; format: cell-based; details: dose 25-100 nM
NCI-H2228 [15] = test: Effect on ALK expression in human NCI-H2228 cells at 25 to 100 nM incubated for 24 hrs by Western blot analysis; format: functional, cell-based; details: dose 25-100 nM
NCI-H2228 [16] = test: Induction of apoptosis in human NCI-H2228 cells assessed as morphological changes incubated for 48 hrs by Hoechst-33258 staining based fluorescence microscopic analysis; format: functional, cell-based; details: dose 30-120 nM
NCI-H2228 [17] = test: Induction of apoptosis in human NCI-H2228 cells assessed as morphological changes at 30 nM incubated for 48 hrs by AO-EB staining based fluorescence microscopic analysis; format: functional, cell-based
NCI-H2228 [18] = test: Induction of apoptosis in human NCI-H2228 cells assessed as early apoptotic cells by observing morphological changes of cell at 120 nM incubated for 48 hrs by AO-EB staining based fluorescence microscopic analysis; format: functional

Sequence of ALK tyrosine kinase receptor (Homo sapiens, UniProt Q9UM73, G1202R) (Q9UM73 19-1620 G1202R limits assumed): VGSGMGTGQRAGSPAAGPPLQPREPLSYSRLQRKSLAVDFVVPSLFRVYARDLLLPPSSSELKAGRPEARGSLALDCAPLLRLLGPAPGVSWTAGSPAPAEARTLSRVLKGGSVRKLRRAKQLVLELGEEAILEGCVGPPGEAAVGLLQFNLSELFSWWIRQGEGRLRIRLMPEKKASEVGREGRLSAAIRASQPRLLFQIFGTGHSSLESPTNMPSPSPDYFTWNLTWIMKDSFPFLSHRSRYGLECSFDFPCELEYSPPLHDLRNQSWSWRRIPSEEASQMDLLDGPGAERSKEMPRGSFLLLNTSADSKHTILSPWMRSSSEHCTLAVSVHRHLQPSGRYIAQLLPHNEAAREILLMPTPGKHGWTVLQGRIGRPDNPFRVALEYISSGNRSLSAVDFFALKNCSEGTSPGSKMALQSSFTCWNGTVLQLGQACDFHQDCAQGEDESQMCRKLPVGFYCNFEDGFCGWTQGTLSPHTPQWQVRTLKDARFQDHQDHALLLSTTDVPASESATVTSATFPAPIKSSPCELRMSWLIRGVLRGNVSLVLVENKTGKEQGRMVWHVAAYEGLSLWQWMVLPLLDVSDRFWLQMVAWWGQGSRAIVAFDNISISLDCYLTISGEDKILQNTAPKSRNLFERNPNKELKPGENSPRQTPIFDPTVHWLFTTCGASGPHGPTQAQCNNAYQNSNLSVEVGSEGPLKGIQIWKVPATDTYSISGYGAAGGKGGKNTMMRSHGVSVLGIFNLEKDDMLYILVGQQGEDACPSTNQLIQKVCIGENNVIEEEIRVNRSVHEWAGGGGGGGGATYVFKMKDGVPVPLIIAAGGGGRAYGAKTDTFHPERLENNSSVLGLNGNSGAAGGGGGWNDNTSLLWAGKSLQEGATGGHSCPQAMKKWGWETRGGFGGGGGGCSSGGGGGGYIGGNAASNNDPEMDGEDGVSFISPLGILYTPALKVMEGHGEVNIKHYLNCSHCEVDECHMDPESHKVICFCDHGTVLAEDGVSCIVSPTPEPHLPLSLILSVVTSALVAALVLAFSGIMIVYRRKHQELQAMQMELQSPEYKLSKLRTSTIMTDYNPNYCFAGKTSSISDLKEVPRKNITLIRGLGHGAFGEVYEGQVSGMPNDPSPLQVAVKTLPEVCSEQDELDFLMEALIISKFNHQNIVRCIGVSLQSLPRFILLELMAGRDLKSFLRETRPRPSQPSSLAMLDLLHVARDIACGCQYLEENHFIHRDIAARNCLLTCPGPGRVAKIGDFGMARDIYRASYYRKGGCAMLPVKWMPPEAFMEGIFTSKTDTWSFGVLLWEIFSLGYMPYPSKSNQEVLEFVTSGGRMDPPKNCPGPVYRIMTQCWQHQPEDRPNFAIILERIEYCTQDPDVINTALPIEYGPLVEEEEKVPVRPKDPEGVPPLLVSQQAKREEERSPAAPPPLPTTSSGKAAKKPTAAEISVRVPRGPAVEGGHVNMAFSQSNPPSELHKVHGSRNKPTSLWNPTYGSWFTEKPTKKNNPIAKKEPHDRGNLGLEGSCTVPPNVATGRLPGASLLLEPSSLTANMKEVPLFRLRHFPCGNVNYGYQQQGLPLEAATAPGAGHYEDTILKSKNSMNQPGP
Sequence of Proto-oncogene tyrosine-protein kinase ROS (P08922 whole entry, the tested form may be a part): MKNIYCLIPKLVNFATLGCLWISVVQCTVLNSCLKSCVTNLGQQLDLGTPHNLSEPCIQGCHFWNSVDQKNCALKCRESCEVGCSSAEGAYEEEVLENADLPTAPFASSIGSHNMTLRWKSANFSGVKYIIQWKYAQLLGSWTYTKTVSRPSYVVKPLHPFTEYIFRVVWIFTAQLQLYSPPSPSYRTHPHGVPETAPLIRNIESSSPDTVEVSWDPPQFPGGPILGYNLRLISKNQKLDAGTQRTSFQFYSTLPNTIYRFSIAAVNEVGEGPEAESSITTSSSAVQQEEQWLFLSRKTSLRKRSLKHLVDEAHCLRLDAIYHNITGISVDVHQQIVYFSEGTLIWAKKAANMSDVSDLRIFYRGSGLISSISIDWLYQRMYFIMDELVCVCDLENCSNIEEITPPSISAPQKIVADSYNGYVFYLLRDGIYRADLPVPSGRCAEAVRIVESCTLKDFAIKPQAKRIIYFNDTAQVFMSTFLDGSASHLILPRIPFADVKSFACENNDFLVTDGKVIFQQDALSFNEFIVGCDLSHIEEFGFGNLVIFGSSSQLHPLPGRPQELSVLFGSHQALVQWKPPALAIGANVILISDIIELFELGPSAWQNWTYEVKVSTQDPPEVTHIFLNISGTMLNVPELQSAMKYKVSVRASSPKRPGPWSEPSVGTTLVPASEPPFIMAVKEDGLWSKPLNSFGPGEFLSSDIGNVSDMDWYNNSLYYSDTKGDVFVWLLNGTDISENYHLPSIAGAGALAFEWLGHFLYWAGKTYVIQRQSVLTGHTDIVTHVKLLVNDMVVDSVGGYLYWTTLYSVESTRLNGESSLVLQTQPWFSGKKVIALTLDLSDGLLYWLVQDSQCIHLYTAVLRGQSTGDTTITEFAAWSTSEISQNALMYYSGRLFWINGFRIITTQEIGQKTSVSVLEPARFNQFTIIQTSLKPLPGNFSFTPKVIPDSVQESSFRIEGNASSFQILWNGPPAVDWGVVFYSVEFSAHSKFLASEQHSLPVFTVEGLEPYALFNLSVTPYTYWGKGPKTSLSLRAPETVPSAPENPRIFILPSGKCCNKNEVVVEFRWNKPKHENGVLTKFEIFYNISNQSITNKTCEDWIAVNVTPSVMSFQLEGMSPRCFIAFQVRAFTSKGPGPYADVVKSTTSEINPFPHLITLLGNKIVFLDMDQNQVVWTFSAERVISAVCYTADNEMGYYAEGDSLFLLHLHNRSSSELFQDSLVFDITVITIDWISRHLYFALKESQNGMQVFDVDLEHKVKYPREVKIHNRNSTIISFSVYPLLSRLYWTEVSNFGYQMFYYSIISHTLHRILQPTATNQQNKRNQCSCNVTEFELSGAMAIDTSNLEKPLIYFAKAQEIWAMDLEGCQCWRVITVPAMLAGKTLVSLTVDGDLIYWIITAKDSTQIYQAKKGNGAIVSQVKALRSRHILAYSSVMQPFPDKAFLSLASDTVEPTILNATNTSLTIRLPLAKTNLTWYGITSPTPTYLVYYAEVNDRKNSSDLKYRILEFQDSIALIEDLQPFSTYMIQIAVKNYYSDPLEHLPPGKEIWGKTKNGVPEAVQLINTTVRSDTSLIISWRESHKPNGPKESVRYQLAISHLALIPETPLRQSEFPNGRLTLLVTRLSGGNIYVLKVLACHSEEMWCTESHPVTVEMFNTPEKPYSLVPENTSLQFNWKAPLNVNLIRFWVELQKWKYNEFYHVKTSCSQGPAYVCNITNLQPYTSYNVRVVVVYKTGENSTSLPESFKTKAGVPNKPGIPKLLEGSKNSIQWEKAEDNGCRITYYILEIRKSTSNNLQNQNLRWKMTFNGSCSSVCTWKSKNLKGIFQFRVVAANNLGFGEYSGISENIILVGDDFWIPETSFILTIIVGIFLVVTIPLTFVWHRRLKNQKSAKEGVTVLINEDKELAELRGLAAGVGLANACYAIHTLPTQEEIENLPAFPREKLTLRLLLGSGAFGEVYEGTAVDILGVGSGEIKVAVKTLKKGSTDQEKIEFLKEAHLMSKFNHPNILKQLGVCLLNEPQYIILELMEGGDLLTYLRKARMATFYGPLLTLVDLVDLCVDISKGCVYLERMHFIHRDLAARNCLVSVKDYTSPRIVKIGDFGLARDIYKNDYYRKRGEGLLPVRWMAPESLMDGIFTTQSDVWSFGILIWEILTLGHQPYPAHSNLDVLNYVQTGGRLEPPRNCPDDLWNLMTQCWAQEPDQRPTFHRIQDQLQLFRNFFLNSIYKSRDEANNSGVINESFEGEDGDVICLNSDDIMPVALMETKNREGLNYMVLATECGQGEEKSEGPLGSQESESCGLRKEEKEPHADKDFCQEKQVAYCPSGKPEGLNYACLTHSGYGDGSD
Sequence of Epidermal growth factor receptor (P00533 whole entry, the tested form may be a part): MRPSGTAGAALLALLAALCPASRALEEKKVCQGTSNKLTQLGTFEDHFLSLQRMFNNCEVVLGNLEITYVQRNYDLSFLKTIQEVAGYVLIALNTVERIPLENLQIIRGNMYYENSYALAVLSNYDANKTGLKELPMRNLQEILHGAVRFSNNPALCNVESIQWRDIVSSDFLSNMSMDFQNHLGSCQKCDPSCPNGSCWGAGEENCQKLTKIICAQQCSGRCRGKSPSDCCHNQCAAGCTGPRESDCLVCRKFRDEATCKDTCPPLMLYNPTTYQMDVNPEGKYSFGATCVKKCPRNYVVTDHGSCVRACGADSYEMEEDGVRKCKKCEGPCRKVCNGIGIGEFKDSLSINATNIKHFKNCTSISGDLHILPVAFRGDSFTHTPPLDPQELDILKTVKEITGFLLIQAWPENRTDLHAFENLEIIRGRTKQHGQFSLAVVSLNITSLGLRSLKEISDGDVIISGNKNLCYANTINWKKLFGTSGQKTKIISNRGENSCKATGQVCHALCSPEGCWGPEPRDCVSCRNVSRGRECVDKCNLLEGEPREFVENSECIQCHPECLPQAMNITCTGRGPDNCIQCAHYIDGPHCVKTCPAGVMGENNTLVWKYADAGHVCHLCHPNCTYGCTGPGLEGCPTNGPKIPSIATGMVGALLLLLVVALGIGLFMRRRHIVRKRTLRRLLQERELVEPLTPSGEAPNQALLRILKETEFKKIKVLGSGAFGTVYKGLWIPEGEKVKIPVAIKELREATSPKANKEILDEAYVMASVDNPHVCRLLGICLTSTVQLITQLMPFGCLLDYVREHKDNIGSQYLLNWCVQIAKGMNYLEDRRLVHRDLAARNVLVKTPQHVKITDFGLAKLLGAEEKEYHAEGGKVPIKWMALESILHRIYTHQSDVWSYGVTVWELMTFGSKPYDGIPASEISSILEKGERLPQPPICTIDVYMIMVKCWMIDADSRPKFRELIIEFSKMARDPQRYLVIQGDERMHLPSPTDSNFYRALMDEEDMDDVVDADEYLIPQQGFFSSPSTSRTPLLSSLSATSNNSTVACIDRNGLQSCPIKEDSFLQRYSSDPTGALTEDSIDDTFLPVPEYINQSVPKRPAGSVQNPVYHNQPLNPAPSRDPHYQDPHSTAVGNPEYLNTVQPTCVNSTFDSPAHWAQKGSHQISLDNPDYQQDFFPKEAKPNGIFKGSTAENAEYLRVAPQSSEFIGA

IC50 (KARPAS-299) [nM]	IC50 (MCF7) [nM]	IC50 (NCI-H2228 [1]) [nM]	IC50 (A549) [nM]	SMILES	other results
80	> 10000			Cc1cc(Nc2ncc(Cl)c(Nc3ccccc3S(=O)(=O)C(C)C)n2)c(OC(C)C)cc1C1CCNCC1 [CERITINIB]	
280	> 10000	350	2360	COc1cc(NCc2ccc(CN3CCCCC3)o2)ccc1Nc1ncc(Cl)c(Nc2ccccc2NS(C)(=O)=O)n1	
820	> 10000	1360	> 10000	COc1cc(SCc2ccco2)ccc1Nc1ncc(Cl)c(Nc2ccccc2NS(C)(=O)=O)n1	
620	> 10000	530	> 10000	COc1cc(NCc2ccc(CN3CCC(C)CC3)o2)ccc1Nc1ncc(Cl)c(Nc2ccccc2NS(C)(=O)=O)n1	
2470	> 10000	3540	> 10000	COc1cc(NCc2ccco2)ccc1Nc1ncc(Cl)c(Nc2ccccc2NC(C)=O)n1	
120	> 10000	200	> 10000	COc1cc(SCc2ccc(CN3CCC(C)CC3)o2)ccc1Nc1ncc(Cl)c(Nc2ccccc2NS(C)(=O)=O)n1	
1230	> 10000	1700	> 10000	COc1cc(S(=O)(=O)Cc2ccco2)ccc1Nc1ncc(Cl)c(Nc2ccccc2NS(C)(=O)=O)n1	
	> 10000	1590	> 10000	COc1cc(OCc2ccco2)ccc1Nc1ncc(Cl)c(Nc2ccccc2NS(C)(=O)=O)n1	
870	> 10000	990	> 10000	COc1cc(NCc2ccc(CN3CCN(CCO)CC3)o2)ccc1Nc1ncc(Cl)c(Nc2ccccc2NS(C)(=O)=O)n1	
200	> 10000	520	3040	COc1cc(NCc2ccc(CN(C)C)o2)ccc1Nc1ncc(Cl)c(Nc2ccccc2NS(C)(=O)=O)n1	
350	> 10000	570	3560	CCN(CC)Cc1ccc(CNc2ccc(Nc3ncc(Cl)c(Nc4ccccc4NS(C)(=O)=O)n3)c(OC)c2)o1	
360	> 10000	480	> 10000	COc1cc(NCc2ccc(CN3CCN(C)CC3)o2)ccc1Nc1ncc(Cl)c(Nc2ccccc2NS(C)(=O)=O)n1	
350	> 10000	500	3920	COc1cc(SCc2ccc(CN3CCCCC3)o2)ccc1Nc1ncc(Cl)c(Nc2ccccc2NS(C)(=O)=O)n1	
140	> 10000	480	> 10000	COc1cc(SCc2ccc(CN3CCN(C)CC3)o2)ccc1Nc1ncc(Cl)c(Nc2ccccc2NS(C)(=O)=O)n1	
230	> 10000	320	> 10000	COc1cc(NCc2ccc(CN3CCOCC3)o2)ccc1Nc1ncc(Cl)c(Nc2ccccc2NS(C)(=O)=O)n1	
1020	> 10000	1600	> 10000	COc1cc(NCc2ccc(CN3CCSCC3)o2)ccc1Nc1ncc(Cl)c(Nc2ccccc2NS(C)(=O)=O)n1	
180	> 10000	340	> 10000	CCN(CC)Cc1ccc(CSc2ccc(Nc3ncc(Cl)c(Nc4ccccc4NS(C)(=O)=O)n3)c(OC)c2)o1	
400	> 10000	720	> 10000	CCN1CCN(Cc2ccc(CNc3ccc(Nc4ncc(Cl)c(Nc5ccccc5NS(C)(=O)=O)n4)c(OC)c3)o2)CC1	
660	> 10000	860	> 10000	COc1cc(SCc2ccc(CN3CCSCC3)o2)ccc1Nc1ncc(Cl)c(Nc2ccccc2NS(C)(=O)=O)n1	
2410	> 10000	3790	> 10000	COc1cc(S(=O)(=O)Cc2ccco2)ccc1Nc1ncc(Cl)c(Nc2ccccc2NC(C)=O)n1	
510	> 10000	820	> 10000	COc1cc(SCc2ccc(CN3CCN(CCO)CC3)o2)ccc1Nc1ncc(Cl)c(Nc2ccccc2NS(C)(=O)=O)n1	
280	> 10000	670	> 10000	CCN1CCN(Cc2ccc(CSc3ccc(Nc4ncc(Cl)c(Nc5ccccc5NS(C)(=O)=O)n4)c(OC)c3)o2)CC1	
150	> 10000	430	920	COc1cc(SCc2ccc(CN3CCOCC3)o2)ccc1Nc1ncc(Cl)c(Nc2ccccc2NS(C)(=O)=O)n1	
350	> 10000	420	> 10000	COc1cc(NCc2ccc(CN3CCCC3)o2)ccc1Nc1ncc(Cl)c(Nc2ccccc2NS(C)(=O)=O)n1	
980	> 10000	1580	> 10000	COc1cc(NCc2ccco2)ccc1Nc1ncc(Cl)c(Nc2ccccc2NS(C)(=O)=O)n1	

SMILES	IC50 (KARPAS-299) [nM]	IC50 (MCF7) [nM]	IC50 (NCI-H2228 [1]) [nM]	IC50 (A549) [nM]	other results
COc1cc(NCC2CCCO2)ccc1Nc1ncc(Cl)c(Nc2ccccc2NS(C)(=O)=O)n1 (stereo not given)	250	> 10000	140	800	IC50 [2]: 3.2 nM; IC50 [3]: 5.8 nM; IC50 [4]: 4.5 nM; IC50 [5]: 4.6 nM; IC50 [6]: > 1000 nM
COc1cc(SCc2ccc(CN(C)C)o2)ccc1Nc1ncc(Cl)c(Nc2ccccc2NS(C)(=O)=O)n1	20	> 10000	110	> 10000	IC50 [2]: 2.8 nM; IC50 [3]: 2.6 nM; IC50 [4]: 3.8 nM; IC50 [5]: 2.3 nM; IC50 [6]: > 1000 nM; Ratio IC50 [7]: 5; Ratio IC50 [8]: 5; inhibition [9]: Dose-dependent effect; inhibition [10]: 100%; inhibition [11]: Active; inhibition [12]: Active; inhibition [13]: Active; inhibition [14]: Active; Activity (NCI-H2228 [15]): Active; Activity (NCI-H2228 [16]): Dose-dependent effect; Activity (NCI-H2228 [17]): Active; Activity (NCI-H2228 [18]): Active
COc1cc(SCc2ccc(CN3CCCC3)o2)ccc1Nc1ncc(Cl)c(Nc2ccccc2NS(C)(=O)=O)n1	70	2810	140	> 10000	IC50 [2]: 3.4 nM; IC50 [3]: 2.8 nM; IC50 [4]: 3.9 nM; IC50 [5]: 4.2 nM; IC50 [6]: > 1000 nM
COc1cc(OCC2CCCO2)ccc1Nc1ncc(Cl)c(Nc2ccccc2NS(C)(=O)=O)n1 (stereo not given)	190	> 10000	90	> 10000	IC50 [2]: 3 nM; IC50 [3]: 3.3 nM; IC50 [4]: 2.1 nM; IC50 [5]: 3.7 nM; IC50 [6]: > 1000 nM
